In patent US20210284617A1, “Synthesis of (S)-2-Amino-4-Methyl-((R)-2-Methyloxirane-2-Yl)-Pentan-1-One and Pharmaceutically Acceptable Salts Thereof” (Amgen Inc., priority 2016, published 2021):
Converted amounts (≈) assume the structure as drawn.

What was measured:
[1] = Solubility of compound in organic solvents (crystallization development); type: physicochemical; settings: for solubility in organic solvents (in words): isolation/crystallization context
Text: Importantly, the intermediate synthesis of compound 3a allowed for the development of a crystallization process capable of purging upstream impurities and eliminating the requirement for column chromatography at step 1 or 2. […] Alternatively, a ternary system of three (3) solvents, such as acetonitrile/water/acetic acid will also work to isolate compound 3a. Further, the epoxidation step 3 in scheme 3 using the Mn-y76t catalyst of the present invention followed by crystallization with IPA/water worked well to not only to purge the diasteromer impurity but also to purge upstream process impurities.

[2] = Storage stability of the step 2 product, concentrated or in ACN/MTBE solution; type: physicochemical; settings: for time stable in solution: 2-10 V of ACN or MTBE
Text: Appropriate quenching of the Grignard process is important to ensure product quality and to eliminate racemization. A Grignard adduct impurity resulting from double-addition of the Grignard reagent was detected by LCMS at ˜2 LCAP during inverse addition of the reaction mixture to a mixture of MTBE (5 V) and 25% citric acid aqueous solution (10 V). An increase in the level of the double-addition by-product (up to 11 LCAP) was observed when quenching the reaction mixture into citric acid solution (in the absence of MTBE) with an associated decrease in product yield by >35%. The excess Grignard could react with product of step 2 that was hydrolyzed after work-up leading to the formation of the impurity. Of note, the impurities of double-addition, morpholine-adduct and dimers could not be detected by HPLC due to their relatively low response factors, but could be detected by LCMS and TLC (EtOAc/heptane 1:4, Nihydrin). Thus, it is important to carefully control the amount of Grignard reagents used and to carefully quench the reaction upon completion. Racemization of step 2 product was not observed during the course of optimization of the Grignard process or during the inverse quenching step. The concentrated product with BHT was stable at ambient temperature for one month; BHT in this sample originated from the solvent (250 ppm in stabilized THF) used in the Grignard process. The solution containing the product of step 2 in 2-10 V of ACN or MTBE was stable at room temperature or 5° C. for at least 4 days or 18 hours at 35° C., which was required to optimize the solvent switch to ACN for the step 3 epoxidation.

SMILES	solubility ([1]; organic solvent or mixture, n-hexane at −20° C.)	solubility in organic solvents (in words) [1]	time stable in solution ([2]; 35° C.)	time stable in solution ([2]; room temperature or 5° C.)	time stable as concentrated product ([2]; concentrated product with BHT, ambient temperature)
CC(C)C[C@H](NC(=O)OC(C)(C)C)C(=O)[C@@]1(C)CO1 [compound 4a, tert-butyl ((S)-4-methyl-1-((R)-2-methyloxiran-2-yl)-1-oxopentan-2-yl)carbamate]	~34 mg/mL (≈ 125 mM)	high solubility in most all organic solvents			
C=C(C)C(=O)[C@@H](CC(C)C)NC(=O)OC(C)(C)C [compound 2a, (R)-tert-butyl (2,6-dimethyl-3-oxohept-1-en-4-yl)carbamate]			18 h	at least 4 days	one month
CC(C)C[C@@H](NC(=O)OC(C)(C)C)C(=O)[C@@]1(C)CO1 [compound 3a, tert-butyl ((R)-4-methyl-1-((R)-2-methyloxiran-2-yl)-1-oxopentan-2-yl)carbamate]		improved solubility profile			
